We go through twelve compounds from PubChem BioAssay (NCI).

One may read the TGI as the concentration giving total growth inhibition.

Some test systems named below: A498 renal; HOP-92 NSCLC; NCI-H460 lung; SK-OV-3 ovarian; HCT-15 colon; SK-MEL-2 melanoma; MALME-3M melanoma; OVCAR-5 ovarian; IGROV1 ovarian; RXF 393 renal; SW-620 colon; MOLT-4 leukemia.
Holding throughout (test): DTP human tumour cell line panel, 48 h

Each structure is given as a SMILES string.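 In this assay, cells in 96-well plates receive the compound at five concentrations for 48 hours. Endpoints are linearly interpolated between the surrounding concentrations. TGI: concentration producing complete growth inhibition.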 Some results are limits rather than exact numbers.

As to `CCN(CC)CCN(C)c1ccc(CO)c2c1C(=O)c1ccccc1S2=O` (stereo not drawn), the TGI worked out at 23.4 µM with A498 renal; 30.5 µM in the experiment with HOP-92 NSCLC; 27.8 µM in the experiment on NCI-H460 lung; 32.4 µM in the experiment with SK-OV-3 ovarian; 12.9 µM with HCT-15 colon; 40.1 µM in the experiment with SK-MEL-2 melanoma. The TGI turned out to be 27.2 µM with MALME-3M melanoma; 24.5 µM in the experiment with OVCAR-5 ovarian; 32.8 µM in the experiment with IGROV1 ovarian; 36 µM with RXF 393 renal; 3.63 µM in the experiment with SW-620 colon.

Regarding `NC1CCC(N(CC(=O)O)CC(=O)O)C(N(CC(=O)O)CC(=O)O)C1` (stereo not drawn), the TGI in the experiment with A498 renal, with HOP-92 NSCLC, in the experiment on NCI-H460 lung, in the experiment with SK-OV-3 ovarian, in the experiment with HCT-15 colon and with SK-MEL-2 melanoma was more than 100 µM each time. Moreover, the TGI in the experiment with MOLT-4 leukemia, in the experiment on MALME-3M melanoma, with OVCAR-5 ovarian, with IGROV1 ovarian, in the experiment on RXF 393 renal and in the experiment with SW-620 colon was more than 100 µM each time.

As for `CC1=CC[C@@]2(C)CC[C@](O)(C(C)C)C2C(OC(=O)c2ccccc2)C1` (stereo partly drawn), the total growth inhibition concentration (TGI) in the experiment with A498 renal worked out at 50.8 µM; with HOP-92 NSCLC, 29.7 µM; in the experiment on NCI-H460 lung it was 40.6 µM; in the experiment with SK-OV-3 ovarian, 28.8 µM; in the experiment on HCT-15 colon it was 34.2 µM; in the experiment on SK-MEL-2 melanoma, 32.2 µM. The concentration for total growth inhibition (TGI) in the experiment with MOLT-4 leukemia was determined as 43.5 µM; with MALME-3M melanoma, 41.6 µM; with OVCAR-5 ovarian, 30.1 µM; in the experiment with IGROV1 ovarian, 30.6 µM; with RXF 393 renal, 27.3 µM; in the experiment with SW-620 colon, 54.4 µM.

For `CN(C)c1c(C2OC(CO)C(O)C2O)c(=O)c1=O` (stereo not drawn), the TGI in the experiment on A498 renal, in the experiment with HOP-92 NSCLC, in the experiment on NCI-H460 lung, with SK-OV-3 ovarian, in the experiment on HCT-15 colon and in the experiment with SK-MEL-2 melanoma was more than 100 µM each time. In addition, the TGI in the experiment on MOLT-4 leukemia, in the experiment with MALME-3M melanoma, in the experiment on OVCAR-5 ovarian, in the experiment with IGROV1 ovarian, with RXF 393 renal and in the experiment on SW-620 colon was more than 100 µM each time.

As for `CSc1ccc(Nc2cc(=O)[nH]c(=O)[nH]2)cc1`, the concentration for total growth inhibition (TGI) with A498 renal, with HOP-92 NSCLC, in the experiment on NCI-H460 lung, with SK-OV-3 ovarian, with HCT-15 colon and in the experiment on SK-MEL-2 melanoma was more than 100 µM in each case. Also, the total growth inhibition concentration (TGI) in the experiment with MOLT-4 leukemia, in the experiment with MALME-3M melanoma, with OVCAR-5 ovarian and in the experiment on SW-620 colon was more than 100 µM in each case.

As to `CC(Nc1ccc(Cl)c(Cl)c1)c1ccncc1` (stereo not drawn), the TGI is 61 µM in the experiment on A498 renal; 54.8 µM in the experiment with HOP-92 NSCLC; 44 µM in the experiment on NCI-H460 lung; 29.3 µM with SK-OV-3 ovarian; more than 100 µM in the experiment on HCT-15 colon; 55.6 µM in the experiment with SK-MEL-2 melanoma. For the same compound, the TGI with MOLT-4 leukemia is more than 100 µM; in the experiment with MALME-3M melanoma it was more than 100 µM; with IGROV1 ovarian it was 50.7 µM; with RXF 393 renal, 54.3 µM; with SW-620 colon, 78.5 µM.

In the case of `CC(=O)OCC(=O)OC[C@H](OCc1ccccc1)[C@@H]1[C@H](OC(C)=O)C(=O)N1Cc1ccccc1`, the concentration for total growth inhibition (TGI) with A498 renal, with HOP-92 NSCLC, in the experiment on SK-OV-3 ovarian, in the experiment on HCT-15 colon, in the experiment on SK-MEL-2 melanoma and with MOLT-4 leukemia was more than 100 µM in each case. Besides, the TGI with MALME-3M melanoma, with OVCAR-5 ovarian, in the experiment on IGROV1 ovarian and in the experiment with SW-620 colon was more than 100 µM in each case.

With `OC(CN(CCCl)CCCl)C(O)C(O)C(O)CN(CCCl)CCCl` (stereo not drawn), the total growth inhibition concentration (TGI) with A498 renal, in the experiment on HOP-92 NSCLC, with NCI-H460 lung, in the experiment on SK-OV-3 ovarian, with HCT-15 colon and in the experiment on SK-MEL-2 melanoma was more than 100 µM each time. For the same compound, the TGI with MALME-3M melanoma, in the experiment with OVCAR-5 ovarian, in the experiment on IGROV1 ovarian, in the experiment on RXF 393 renal and with SW-620 colon was more than 100 µM in each case.

In the case of `COC(=O)/C=C1/OC(c2ccccc2)=C(C)C1=O`, the total growth inhibition concentration (TGI) with A498 renal was 32.8 µM; in the experiment with HOP-92 NSCLC, 26.2 µM; in the experiment with NCI-H460 lung it was 39.2 µM; in the experiment on SK-OV-3 ovarian, 22.6 µM; with HCT-15 colon, 17 µM; with MOLT-4 leukemia, more than 100 µM. The TGI with MALME-3M melanoma turned out to be 26.7 µM; with OVCAR-5 ovarian, 30.6 µM; with IGROV1 ovarian it was 28.4 µM; with RXF 393 renal, 22.5 µM; in the experiment with SW-620 colon, 5.58 µM.

With `Cn1c2ccccc2c(=O)c2c(O)cc3c(c21)C=CC(C)(C)O3`, the TGI in the experiment with A498 renal, in the experiment on HOP-92 NSCLC, in the experiment with NCI-H460 lung, in the experiment with SK-OV-3 ovarian, in the experiment with HCT-15 colon and in the experiment with SK-MEL-2 melanoma was more than 25 µM in each case. Moreover, the total growth inhibition concentration (TGI) in the experiment on MALME-3M melanoma, with OVCAR-5 ovarian, in the experiment on IGROV1 ovarian, with RXF 393 renal and in the experiment with SW-620 colon was more than 25 µM each time.

Turning to `CSc1nc2c(c(=O)n1C)N=C(c1ccc([N+](=O)[O-])cc1)CC(c1ccccc1)N2` (stereo not drawn), the total growth inhibition concentration (TGI) in the experiment on A498 renal, in the experiment with HOP-92 NSCLC, with NCI-H460 lung, with SK-OV-3 ovarian, with SK-MEL-2 melanoma and with MOLT-4 leukemia was more than 100 µM in each case. The TGI in the experiment on MALME-3M melanoma, with OVCAR-5 ovarian, in the experiment with IGROV1 ovarian, in the experiment with RXF 393 renal and with SW-620 colon was more than 100 µM throughout.

For `CCCSc1ccc2[nH]c(N3C(=O)/C(=C/c4ccc(SC)cc4)N=C3c3ccccc3)cc2c1`, the TGI with A498 renal is more than 50 µM; in the experiment on HOP-92 NSCLC, more than 50 µM; with NCI-H460 lung, more than 50 µM; with SK-OV-3 ovarian, more than 50 µM; in the experiment on HCT-15 colon it was more than 50 µM; in the experiment on SK-MEL-2 melanoma it was more than 38.5 µM. The total growth inhibition concentration (TGI) with MALME-3M melanoma was more than 50 µM; with OVCAR-5 ovarian, more than 50 µM; in the experiment with IGROV1 ovarian it was more than 50 µM; in the experiment on RXF 393 renal, more than 46.6 µM; in the experiment with SW-620 colon it was more than 50 µM.
